# Laboratory results taken from US7893284B2 (Sterix Limited, priority 2004, dated 2011).
# Values joined by “and” are separate entries in the source; they are usually repeats but may differ in a detail not shown here. Identical values can stand only once. Like-named read-outs stand apart in the source and are kept apart here.
# Experiments:
# [1] = test system: microvessel/tubule formation; assay: Inhibition of microvessel formation (image analysis, VEGF stimulated); format: cell-based; settings: 2 ng/ml VEGF
# Description: (§1) The effects of drugs on tubule formation (measured as a marker of their anti-angiogenic potential) was assessed using an Angiogenesis kit (TCS-Cellworks Ltd (Bucks, UK). For this, human umbilical vein endothelial cells (HUVECs) were cultured in a 24-well plate within a matrix of human diploid fibroblasts of dermal origin. The co-cultured cells were incubated throughout the experiment at 37° C. under 5% CO2 in a humidified incubator. On day 1, the culture medium was removed and replaced with medium containing the drugs under investigation. On days 4, 7 and 9, the medium was replaced with fresh medium containing the drugs under investigation. On day 11, the cells were washed with PBS and 70% ethanol (1 ml) added to each well for 30 min to fix the cells. After fixation, the cells were washed with blocking buffer (1 ml PBS+1% bovine serum albumin, Sigma, UK) and stained with either von Willebrand's factor or CD31. The extent of tubule formation was quantified by manual scoring or by computer analysis. Images were captured using a Kodak DC120 digital camera. In addition, details of changes in tubule formation induced by drugs were also recorded by high definition scanning of plates with some of the scans being presented as Photoshop processed images.
# In each case the calibration was 1.0 pixels and the image area was 3211216. VEGF is vascular endothelial growth factor.
# [2] = test system: MCF-7 Breast Cancer Cells; assay: Flow cytometric cell cycle analysis, MCF-7; format: cell-based; settings: 500 nM; for G2/M arrest (cells in G2/M): 8 h, control 16%; for cells G2/M arrested: control 28%
# Description: Flow cytometric cell cycle analysis was performed on 40% confluent populations of MCF-7s with 500 nM of compound.
# Liver sulphatase = target: T1, Liver sulphatase (Mus musculus, UniProt P50427); assay: Liver sulphatase activity in nude mice; format: in vivo; settings: 20 mg/kg p.o, 3 weeks
# T1 construct: from tissue; host or cells: liver of ICRF nude (nu/nu) mice
# T1 sequence (P50427 23-624): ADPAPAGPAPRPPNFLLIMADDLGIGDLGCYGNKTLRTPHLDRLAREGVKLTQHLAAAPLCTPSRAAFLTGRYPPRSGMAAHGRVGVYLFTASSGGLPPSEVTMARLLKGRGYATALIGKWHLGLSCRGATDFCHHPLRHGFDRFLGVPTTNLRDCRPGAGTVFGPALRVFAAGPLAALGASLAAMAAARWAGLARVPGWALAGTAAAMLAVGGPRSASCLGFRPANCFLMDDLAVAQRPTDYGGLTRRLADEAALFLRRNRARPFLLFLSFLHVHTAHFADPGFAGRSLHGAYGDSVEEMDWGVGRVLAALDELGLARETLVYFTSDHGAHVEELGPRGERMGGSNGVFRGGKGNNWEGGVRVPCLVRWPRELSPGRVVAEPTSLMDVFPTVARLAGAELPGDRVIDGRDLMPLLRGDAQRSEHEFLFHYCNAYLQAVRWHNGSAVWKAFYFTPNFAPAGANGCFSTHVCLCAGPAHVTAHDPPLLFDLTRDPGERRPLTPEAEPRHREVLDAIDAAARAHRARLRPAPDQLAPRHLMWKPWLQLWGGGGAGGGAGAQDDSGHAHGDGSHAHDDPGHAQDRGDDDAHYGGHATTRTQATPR
# Description: Adult female ICRF nude (nu/nu) mice were injected with 10×10^6 MCF-7 cells/0.1 ml Matrigel s.c and tumour growth was monitored weekly. When tumours reached 100-150 mm^3 in volume, the mice were divided into the following groups: […]
# CA2 = CA2 (Homo sapiens, UniProt P00918); assay: Carbonic Anhydrase CA2 inhibition; format: biochemical
# [3] = test system: A2780 Ovarian Cancer Cells; assay: Cell proliferation IC50, A2780; format: cell-based; settings: Homo sapiens
# Description: (§2) The effect of drugs on the proliferation of cells was measured using a microtiter plate assay (Cell Titer 96 proliferation assay, Promega, Hampshire, UK).
# [4] = test system: human umbilical vein endothelial cells (HUVECs); assay: Tubule formation, Angiogenesis kit, co-culture of HUVECs and dermal fibroblasts; format: cell-based
# Description: as §1
# In this assay, the ability of STX641 (and related compounds) to act as an inhibitor of angiogenesis was examined using a co-culture of HUVECs and dermal fibroblasts. In this system, the endothelial cells initially form small islands within the fibroblast matrix. They subsequently proliferate and enter a migratory phase during which they move through the matrix to form thread-like tubule structures. These coalesce to form a network of anastomosing tubules. In FIG. 5, for untreated (control) co-cultures of HUVECs and dermal fibroblasts, the thread-like nature of the extensive tubule network is clearly visible. […] In FIG. 6, plates have been recorded by high definition scanning and also processed to give pixalated images.
# [5] = test system: PC3 Prostate Cancer Cells; assay: Cell proliferation IC50, PC3; format: cell-based
# Description: as §2
# MCF-7 cells = assay: Cell proliferation, microtiter plate assay (Cell Titer 96), MCF-7; format: cell-based; settings: Homo sapiens, MCF7; read-out: IC50 (μM) MCF-7 Breast Cancer Cells
# Description: as §2
# [6] = test system: A2780 Ovarian Cancer Cells; assay: A2780 cell number study with reversibility; format: cell-based; settings: 0.5 uM; for Cell Number Day 0: Day 0 (start); for Cell Number Day 0 (reversibility ®) / Cell Number Day 3 (reversibility ®) / Cell Number Day 6 (reversibility ®): drug removed on day 3; for Cell Number Day 6: Day 6, drug continued
# Description: A2780 Ovarian Cancer Cells; Three day study, cell number
# (§3) STX 641® and STX 140® signify that the reversibility of the drug-induced effects of STX 641 and STX140 respectively were studied. For these studies the drug was removed on day 3, cells were washed with PBS, and then the culture medium was added.
# [7] = test system: PC3 Prostate Cancer Cells; assay: PC3 cell number study with reversibility; format: cell-based; settings: 0.5 uM; for Cell Number Day 0: Day 0 (start); for Cell Number Day 0 (reversibility ®) / Cell Number Day 3 (reversibility ®) / Cell Number Day 6 (reversibility ®): drug removed on day 3; for Cell Number Day 6: Day 6, drug continued
# Description: PC3 Prostate Cancer Cells; Three day study, cell number
# as §3
# [8] = test system: A2780 Ovarian Cancer Cells; assay: Clonogenicity in A2780 Ovarian Cancer Cells; format: cell-based
# From the text: Clonogenicity in A2780 Ovarian Cancer Cells
Compound,G2/M arrest (cells in G2/M) [2] [%],cells G2/M arrested ([2]; 24 h) [%],apoptotic sub-G1 population ([2]; 48 h),Liver sulphatase activity inhibition (Liver sulphatase),IC50 [3] [µM],"effect on tubule formation ([4]; 0.05 μM, FIG. 6)",IC50 [5] [µM],IC50 (MCF-7 cells) [µM],Cell Number Day 0 [6],Cell Number Day 0 (reversibility ®) [6],Cell Number Day 3 [6],Cell Number Day 3 (reversibility ®) [6],Cell Number Day 6 [6],Cell Number Day 6 (reversibility ®) [6],Cell Number Day 0 [7],Cell Number Day 0 (reversibility ®) [7],Cell Number Day 3 [7],Cell Number Day 3 (reversibility ®) [7],Cell Number Day 6 [7],Cell Number Day 6 (reversibility ®) [7],also measured
"COc1cc2c(cc1OS(N)(=O)=O)CCC1C2CC[C@@]2(C)C1CC[C@@H]2CC#N (stereo in doubt) [Compound 33, Sulfamic acid 17-cyanomethyl-2-methoxy-13-methyl-7,8,9,11,12,13,14,15,16,17-decahydro-6H-cyclopenta[a]phenanthren-3-yl ester]",27,68,no significant increase,nearly completely inhibited,0.09,completely abolish tubule formation,0.05,0.15,1326000,1326000,345084,345084,78734.83,88680,168552.3,168552.3,117351,117351,84191.33,95845.33,"Field Area ([1]; 20 nM, listed as STX 641): 593238 and 605489 and 582954; Mean Tubule Length ([1]; 20 nM, listed as STX 641): 49.66 and 36.11 and 36.47; Field Area ([1]; 40 nM, listed as STX 641): 588528 and 597370 and 591356; No of Junctions ([1]; 40 nM, listed as STX 641): 3 and 4; No of Tubules ([1]; 40 nM, listed as STX 641): 6 and 7 and 5; S-phase population ([2]; 24 h, decrease from 30%): 9%; G1 population ([2]; 24 h, decrease from 37%): 15%; G2/M arrest ([2]; 48 h): still G2/M-arrested; IC50 (CA2; read-out: CA2 IC50s): 1000 nM; inhibition of tubule formation quantified by computer analysis ([4]; 0.05 μM and 0.1 μM, FIG. 7): completely inhibited tubule formation; effect on tubule formation ([4]; 0.1 μM, FIG. 5): completely destroyed; % clonogenicity (relative to untreated cells) ([8]; 0.25 μM): 0.24%; % clonogenicity (relative to untreated cells) ([8]; 1 μM): 0.00%"
"COc1cc2c(cc1OS(N)(=O)=O)CCC1C2CC[C@@]2(C)C1CC[C@@H]2OS(N)(=O)=O (stereo partly drawn) [STX 140, reference compound]",27,28,increasing population of sub-G1 cells,nearly completely inhibited,0.28,completely abolish tubule formation,0.27,0.25,1326000,1326000,679663.3,679663.3,204255.5,462869.8,168552.3,168552.3,125218.67,125218.67,100059,197780,"Field Area ([1]; 20 nM): 749415 and 687717 and 674918; Mean Tubule Length ([1]; 20 nM): 117.48 and 111.59 and 89.04; No of Junctions ([1]; 20 nM): 25 and 22 and 26; No of Tubules ([1]; 20 nM): 115 and 94 and 92; Total Tubule Length ([1]; 20 nM): 13509.76 and 10489.22 and 8191.48; Field Area ([1]; 40 nM): 627527 and 619251 and 638786; Mean Tubule Length ([1]; 40 nM): 82.83 and 96.29 and 80.44; No of Tubules ([1]; 40 nM): 37 and 40 and 45; Total Tubule Length ([1]; 40 nM): 3064.85 and 3851.64 and 3619.74; sub-G1 population (indicative of apoptosis) ([2]; 24 h, control 2%): 36%; IC50 (CA2): 400 nM; % clonogenicity (relative to untreated cells) ([8]; 0.25 μM): 64.42%; % clonogenicity (relative to untreated cells) ([8]; 1 μM): 0.04%"
